The data set relates to Homo sapiens. The experiment in a line: Drug level in human serum at 10 mg/kg. The following applies: in vivo. The format is ADME, organism-based. Set-up: dose 10 mg/kg.

Molecules are shown by their SMILES.

The compound `NNC(=O)c1ccncc1` [ISONIAZID] gave a Drug uptake of 0.4 µg/mL.

The record behind these values is ChEMBL document CHEMBL1275575, “Susceptibility of Mycobacterium bovis BCG vaccine strains to antituberculous antibiotics” (Antimicrob Agents Chemother, 2009).
